“And” between values parts separate entries of the source, which are not always exact repeats. Equal values may be shown once.
Assays:
HDAC1 = HDAC1 (Homo sapiens, UniProt Q13547); assay: HDAC1 enzyme inhibition; assay type: biochemical; conditions: read-out: HDAC inhibition IC50 HDAC1
Experimental: (§1) The inhibitory capacity of DDI199 on HDACs was studied as previously described. The capacity of DDI199 to inhibit MAOs was studied by mimicking the reaction occurring in cells. Briefly, inhibitor solution containing 10 µM of DDI199 or reference compound was incubated for 30 minutes at 37 °C together with the enzyme solution, containing either recombinant hMAO-A (Sigma-Aldrich) at 0.5 U/mL or hMAO-B (Sigma-Aldrich) at 1.5 U/mL. 200 U/mL horseradish peroxidase (Sigma-Aldrich), 20 mM Ampliflu Red (Sigma-Aldrich) and 100 mM tyramine hydrochloride (Sigma-Aldrich) were then added and absorbance at 570 nm was measured every 5 minutes for 30 minutes. Percentage of inhibition was estimated from these values.

recombinant hMAO-B = biological target: T1, recombinant hMAO-B (Homo sapiens, UniProt P27338); assay: biochemical
T1 construct: purchased Sigma-Aldrich
Experimental: as §1

recombinant hBChE = biological target: T2, recombinant hBChE (Homo sapiens, UniProt P06276); assay: BChE inhibition and kinetics, Ellman's colorimetric method; assay type: biochemical
T2 construct: purchased Sigma-Aldrich
Experimental: Similarly, Ellman’s colorimetric method was used to study the inhibitory capacity of the compound on ChEs. Enzyme solution containing either recombinant hAChE (Sigma-Aldrich) at 0.5 U/mL or hBChE (Sigma-Aldrich) at 0.25 U/mL was incubated with inhibitor solution containing 10 µM of DDI199 or reference compound and 0.3 mM of DTNB (Sigma-Aldrich) for 20 minutes at 37 °C. […] In addition, kinetic of enzyme inhibition was also studied by repeating the same protocol and using five different concentrations of the substrate and four different concentrations of the inhibitor. Results were represented in a Lineweaver-Burk plot using GraphPad Prism software, and the constant of inhibition (Ki) was estimated from the point at which the line cuts the x-axis at the secondary plot.

GNS166 cells [1] = assay: Immunofluorescence of pH3, Cleaved Caspase 3, Ki67, PARP1; assay type: cell-based, human; conditions: for pH3-positive cells: control 3%
Experimental: Immunofluorescence assays were performed following standard procedures. Cells were seeded at a density of 2 × 10^4 cells/well in 8-well immunofluorescence chambers (LabTek Thermo) and incubated overnight before treating with increasing concentrations of DDI199. After 48 h, cells were fixed with 4% PFA. Primary antibodies against phosphohistone H3 (pH3) (ab14955, abcam), Cleaved Caspase 3 (AF385, R&D Systems), Ki67 (ab15580, abcam) and PARP1 (ab32064, abcam) were used. Secondary antibodies were Alexa Fluor anti-mouse (A21422, Invitrogen) and Alexa Fluor anti-rabbit (A31572, Invitrogen), and chromatin was stained with DAPI (D9541, Sigma-Aldrich). Axio Observer 7 epifluorescence microscope was used to take pictures, which were later quantified in Qupath.

GNS166 cells [2] = assay: Cell cycle analysis by flow cytometry; assay type: cell-based, human; conditions: for Cell subpopulation in Sub G1: non-treated 1.9%; for Cell subpopulation in G2/M phase: non-treated 25%
Experimental: Cells were harvested using accutase and washed with PBS. 1·10^6 cells were fixed with 70% cold ethanol at −20 °C for at least 24 h, and incubated with 0.5% Triton X-100 and 25 µg/mL RNase A in PBS for 30 min at room temperature. Then, DNA was stained with […] propidium iodide for 15 min and samples were analyzed using a CytoFLEX flow cytometer (Beckman Coulter Co.).

[3] = In vivo toxicity assay (body weight, organ macroscopy); set-up: species or system athymic nude-Foxn1nu mice; conditions: intraperitoneal 15 mg/mL, 5 times per week for 4 weeks
Experimental: 15 mg/mL of DDI199 or vehicle (DMSO) were intraperitoneally injected in athymic nude-Foxn1^nu mice following a schedule of 5 days on and 2 days off and changes in body weight were measured to assess the potential toxicity of the MSM. At the end-point macroscopic analysis of the different organs was done.

U87-MG cells [4] = assay: Subcutaneous U87-MG tumor growth, single treatment; assay type: in vivo, athymic nude-Foxn1nu mice; conditions: day 34, 100 µM intratumoral
Experimental: (§2) For tumor growth experiments, 5 × 10^5 U87-MG cells were subcutaneously injected into two bottom flanks of athymic nude-Foxn1^nu mice, and once tumors reached a size of 25-50 mm^3, mice were sorted into groups taking into account gender and tumor size. Afterwards, mice were intratumorally treated with vehicle, SAHA 100 µM or DDI199 100 µM following a schedule of 5 days on and 2 days off. In combined treatment, mice were treated intraperitoneally with 0.5 mg/Kg of TMZ for 5 days and intratumorally following a schedule of 5 days on and 2 days off with vehicle, SAHA 100 µM or DDI199 100 µM. After 4 weeks of treatment, some mice were kept for washout experiment, while the rest were sacrificed and tumors were extracted for immunohistochemistry and to disaggregate for reinjection and oncosphere formation studies. For reinjection assays, 1.5 × 10^5 cells were subcutaneously injected and tumor size was periodically measured. Once tumors reached end-point criteria, they were extracted for immunohistochemical analysis. An external caliper was used for tumor size measurement and the tumor volume was estimated using the formula V = L · W^2 · 0.5 (where L is tumor length and W is the tumor width).

U87-MG tumor cells = assay: Re-injection (regrowth) of cells from treated tumors; assay type: in vivo, athymic nude-Foxn1nu mice
Experimental: as §2

U87-MG cells [5] = assay: Cell viability with TMZ and DDI199 alone or combined; assay type: cell-based, human; conditions: 72 h
Experimental: MTT assay was used to study cell viability. For that, cells were seeded at a density of 1.5 × 10^3 cells/well in 96-well plates, incubated overnight and then treated with increasing concentrations of DDI199. After 72 h of treatment, MTT absorbance was measured at 570 nm. GraphPad Prism software was used to analyze results and calculate IC50 values.

U87-MG cells [6] = assay: Subcutaneous U87-MG tumor growth, combined treatment with TMZ; assay type: in vivo, athymic nude-Foxn1nu mice
Experimental: as §2

[7] = TMZ 0.5 mg/kg ip + DDI199 100 µM intratumoral

T2 sequence (P06276 29-602): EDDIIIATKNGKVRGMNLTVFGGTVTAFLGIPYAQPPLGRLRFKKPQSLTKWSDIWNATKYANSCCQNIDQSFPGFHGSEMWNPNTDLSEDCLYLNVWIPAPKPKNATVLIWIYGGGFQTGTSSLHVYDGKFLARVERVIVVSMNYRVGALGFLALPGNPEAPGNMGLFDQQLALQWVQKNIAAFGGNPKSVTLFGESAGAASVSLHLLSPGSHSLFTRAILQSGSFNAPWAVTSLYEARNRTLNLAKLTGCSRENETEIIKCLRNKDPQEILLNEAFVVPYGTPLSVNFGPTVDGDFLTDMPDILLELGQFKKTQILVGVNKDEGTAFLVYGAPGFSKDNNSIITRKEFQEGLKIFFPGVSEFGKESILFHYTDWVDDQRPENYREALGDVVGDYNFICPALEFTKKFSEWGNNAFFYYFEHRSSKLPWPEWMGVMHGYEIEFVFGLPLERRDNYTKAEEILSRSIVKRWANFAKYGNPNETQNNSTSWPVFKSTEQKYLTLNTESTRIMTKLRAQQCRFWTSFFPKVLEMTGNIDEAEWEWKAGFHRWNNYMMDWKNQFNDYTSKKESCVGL
Sequence of HDAC1 (Q13547 whole entry): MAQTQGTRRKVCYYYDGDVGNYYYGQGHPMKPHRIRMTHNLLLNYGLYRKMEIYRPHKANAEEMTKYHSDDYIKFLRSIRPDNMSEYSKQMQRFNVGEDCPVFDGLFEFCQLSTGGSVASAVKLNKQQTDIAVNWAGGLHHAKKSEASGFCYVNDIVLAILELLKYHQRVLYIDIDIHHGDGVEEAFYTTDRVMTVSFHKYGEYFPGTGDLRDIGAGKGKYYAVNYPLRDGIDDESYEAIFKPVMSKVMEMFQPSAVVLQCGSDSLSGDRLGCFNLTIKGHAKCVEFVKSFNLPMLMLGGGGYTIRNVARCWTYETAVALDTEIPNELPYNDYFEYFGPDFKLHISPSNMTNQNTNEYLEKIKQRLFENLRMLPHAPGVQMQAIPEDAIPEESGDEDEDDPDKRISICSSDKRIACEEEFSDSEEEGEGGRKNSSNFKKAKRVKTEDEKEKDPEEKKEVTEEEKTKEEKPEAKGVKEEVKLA
T1 sequence (P27338 whole entry): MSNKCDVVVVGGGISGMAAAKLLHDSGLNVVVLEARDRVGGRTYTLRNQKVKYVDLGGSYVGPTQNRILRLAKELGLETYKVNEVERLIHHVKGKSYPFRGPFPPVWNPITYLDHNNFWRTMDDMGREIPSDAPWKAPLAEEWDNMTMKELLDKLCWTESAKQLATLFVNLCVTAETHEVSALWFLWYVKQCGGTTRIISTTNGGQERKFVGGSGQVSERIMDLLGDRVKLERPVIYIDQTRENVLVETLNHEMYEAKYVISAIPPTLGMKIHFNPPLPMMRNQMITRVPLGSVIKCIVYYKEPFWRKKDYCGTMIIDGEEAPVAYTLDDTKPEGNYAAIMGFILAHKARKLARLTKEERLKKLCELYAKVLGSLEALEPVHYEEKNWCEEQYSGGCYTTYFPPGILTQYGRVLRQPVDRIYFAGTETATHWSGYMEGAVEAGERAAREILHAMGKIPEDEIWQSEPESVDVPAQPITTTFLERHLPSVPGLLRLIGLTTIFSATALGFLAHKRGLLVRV

## C#CCN(Cc1cc2cc(OCCCN3CCCCC3)ccc2n1S(=O)(=O)c1ccccc1)C(=O)CCCCCCC(=O)NO [DDI199]
HDAC1
  IC50: 377 nM and 370 nM
Recombinant hMAO-B; 10 µM compound, read-out: MAO-B inhibition percentage
  inhibition at 10 µM: 55%
Recombinant hMAO-B; read-out: MAO-B IC50
  IC50: 14.9 µM
Recombinant hBChE
  IC50: 2540 nM
Recombinant hBChE; 10 µM compound, read-out: BChE inhibition percentage
  inhibition at 10 µM: 75%
Recombinant hBChE; Lineweaver-Burk plot
  BChE type of inhibition: mixed inhibition
Recombinant hBChE; from Lineweaver-Burk and secondary plots
  Ki: 870 nM
GNS166 cells [1]; GNS166, 1 µM
  pH3-positive cells: 2%
GNS166 cells [1]; GNS166, 5 µM
  Ki67 positive cells: almost blocking completely
  pH3-positive cells: 0.6%
GNS166 cells [1]; GNS166, 10 µM
  pH3-positive cells: 0.1%
GNS166 cells [1]; GNS166, 1, 5 and 10 µM
  Cleaved Caspase-3-positive cells: increase
  PARP-positive cells: dose-dependent induction of apoptosis
GNS166 cells [2]; GNS166, 5 µM
  Cell subpopulation in Sub G1: 7.2%
  Cell subpopulation in G2/M phase: 35%
GNS166 cells [2]; GNS166, 10 µM
  Cell subpopulation in Sub G1: 11.9%
  Cell subpopulation in G2/M phase: 32%
[3]
  Body weight of animals compared to controls: did not significantly affect the body weight
  Macroscopic analysis of organs at end-point: did not observe any difference
U87-MG cells [4]
  Reduction in tumor growth versus controls: ~50%
  Tumor weight at end-point: significantly lower than the controls and also of SAHA
U87-MG cells [4]; 5 days on 2 days off, controls 800 mm^3
  Mean final tumor volume: 465 mm^3
U87-MG tumor cells; cells from TMZ + DDI199 treated tumors
  Tumors reforming after re-injection, combined with TMZ: 1 tumor out of 3
U87-MG tumor cells; cells from treated tumors
  Reduction of final tumor weight after re-injection versus control: ~70%
  Reduction of tumor volume after re-injection versus control: 60%
U87-MG tumor cells; cells from treated tumors, controls over 500 mm^3
  Mean tumor volume after re-injection: 200 mm^3
U87-MG cells [5]; 0.5 µM DDI199 + 250 µM TMZ
  Cytotoxicity in combination with TMZ: over 70%
U87-MG cells [5]; 250 µM TMZ or 0.5 µM DDI199 alone
  Cell viability, single agent: reduced cell viability
U87-MG cells [6]; TMZ 0.5 mg/kg ip 5 days + 100 µM intratumoral, end-point, controls 600 mm^3
  Mean tumor volume, combined with TMZ: 115 mm^3
U87-MG cells [6]; [7]
  Reduction in final tumor volume versus TMZ + SAHA, combined with TMZ: ~70%
  Reduction in final tumor volume versus controls, combined with TMZ: 80%
  Reduction in tumor volume versus TMZ alone, combined with TMZ: 70%
  Reduction in tumor weight versus TMZ + SAHA, combined with TMZ: 47%
  Reduction in tumor weight versus TMZ alone, combined with TMZ: 65%
  Reduction in tumor weight versus controls, combined with TMZ: 65%

— article PMC11971462, “Generation and validation of a novel multitarget small molecule in glioblastoma” (Cell Death & Disease, 2025)
